# Measurements reported in patent publication US20040096815A1, “Method of identifying an eventual modification of at least one biological parameter making use of living cells which are subjected to a stress and living cells which are not subjected to this same stress” (COLETICA, priority 2002, published 2004).
# How the values were obtained:
# [1] = system: normal human keratinocytes in monolayer; assay: hBD2 and hBD3 expression (RT-PCR, band intensity vs actin) in keratinocytes in monolayer; assay type: cell-based; settings: 100 ng/ml, 16 hours
# Procedure: The normal human keratinocytes are cultivated in monolayer on 96-wells culture plates, in a defined medium without serum and enriched with calcium (final concentration 1.7 mM).
# At 80% of confluence, the cells are placed in contact with a chemical stress, i.e. molecules which mimic a microbial attack, such as TNFα (100 ng/ml) or IFNγ (100 ng/ml), for 16 hours. Keratinocytes which are non-stressed, i.e. which are not placed in contact with the chemical substances mimicking a microbial attack, are used in a model of reconstructed epidermis.
# After 16 hours, the supernatants are collected and the cells are dry frozen at −80° C. after a rinsing with PBS.
# The total RNAs are extracted with the aid of a 96-wells fluo extraction kit on silica columns and are determined on a 96-wells spectrophotometer at 260 and 280 nm. The RNAs are diluted at 5 ng/μl.
# The one-step qualitative RT-PCR is carried out on 50 ng of RNA (initial) in 96 wells, on actin, hBD2 and hBD3. The primers are used at 0.5 μM and are from the literature: hBD2sense: 5′-[…]-3′; hBD2antisense: 5′-GGAGCCCJTlCTGMTC CGCA-3′ (Harder J. et al., A peptide antibiotic from human skin. Nature 1997; 387: 861); hBD3sense: 5′-[…]-3′, hBD3 antisense: 5′-[…] […]-3′; actin sense: 5′-[…]-3′, actin antisense: 5′-[…]lTTC-3′ (Harder J. et al., Isolation and characterization of hBD3, a novel human inducible peptide antibiotic. J. Biol. Chem. 2001; 276: 5707-5713).
# The samples are placed in a thermocycler and following a common program of amplification: 50° C., 30 mins; 94° C., 2 mins; (94° C., 30 secs; 60° C., 30 sec; 68° C., 30 sec) 32 cycles for the defensins and 30 cycles for the actin; 72° C., 10 min; 14° C., infinity.
# After amplification, the products are mixed at the rate of 3 μl of products of amplification of actin+6 μl of products of amplification of hBD2+6 μl of products of amplification of hBD3. 5 μl of a mixture of filler buffer and water (2/3) are added and the final 20 μl are deposited on a pre-poured 2% agarose gel. The samples migrate in 30 minutes and the bands are visualized under UV in a black chamber and are photographed digitally.
# (§1) The photographs of the gels are analyzed by an image treatment software which quantifies the intensity of the bands. The ratios of intensity of the hBD2/actin and hBD3/actin bands are compared on the one hand between the monolayer model and the 3D model (reconstructed epidermis) in a non-stressed condition, and, on the other hand, following the effect of a stress (cells treated with TNFβ or IFNγ).
# [2] = system: reconstructed epidermis (foreskin keratinocytes); assay: hBD2 and hBD3 expression (RT-PCR, band intensity vs actin) in 3D reconstructed epidermis; assay type: cell-based, human; settings: 100 ng/ml, 24 hours
# Procedure: At the end of experimentation, the reconstructed epidermis are treated in the following manner:
# 1 sample undergoes no treatment (model comprising reference cells=negative control).
# 1 sample undergoes no treatment with the actives but undergoes various types of stress at the end of culture (model comprising stressed cells=positive control), e.g. incubation in the presence of TNFα at 100 ng/ml, IFN γ100 ng/ml.
# 1 sample undergoes the treatment with the active (1% in the culture medium for 24 hours) and then a stress (equivalent to the positive control).
# The RNAs are diluted at 5 ng/μl and are treated as described above.
# as §1
Substance,"HBD2, ratio of intensity of the hBD2/actin bands [1]","HBD3, ratio of intensity of the hBD3/actin bands [1]","HBD2, ratio of intensity of the hBD2/actin bands [2]","HBD3, ratio of intensity of the hBD3/actin bands [2]"
"IFNγ: molecule mimicking a microbial attack, used as stress",0.450,0.370,0.581,0.492
TNFα,1.240,0.266,1.617,0.546
